Assay results: patent US20030232994A1, “Bicyclic thiophene derivatives and combinatorial libraries thereof” (priority 2001, published 2003)

Test system: Streptococcus pyogenes (ATCC# 97-03 14289)
Experiment: Anti-microbial screen (growth inhibition, OD 570 nm)
Format: cell-based
Details: growth in Todd Hewitt Broth, plates read at 570 nm at 0 time and 4 hours, color corrected
Experimental: Streptococcus pyogenes (ATCC# 97-03 14289) was grown in Todd Hewitt Broth (THB) (Difco Laboratories #0492-17-6) overnight until reaching an optical density of (OD=0.636 @ 570 nm) by reading 0.1 ml in a 96 well microtiter plate in a Molecular Devices Thermomax. This preparation was kept frozen as stocks in 30% v/v glycerol in 1.5 ml aliquots at −70^mC. until use. Prior to experiments, […] aliquots were thawed and diluted into 50 ml 2×THB. 60 ul of this dilution was added to 92 wells of microtiter plate. To three wells THB (200 ul) was added to serve as a blank and a sterility control. Test compounds in DMSO and appropriate concentrations of DMSO were added to Growth/Solvent Controls at 0 time. Plates were read at 0 time at 570 nm in the Molecular Devices plate reader to obtain compounds correction factors for insoluble or colored compounds. Plates were read again at 4 hours.
Percent inhibition is calculated with the following formulae: [drawing 4]
Color correct=O.D. 0 hr−Blank 0 hr)−(Solvent Control 0 hr−Blank 0 hr)
% Inhibition=100−O.D. test compound 4 hr−Blank 4 hr−color correct O.D. growth/solvent control 4 hr−Blank 4 hr

SMILES | % Inhibition
O=C(Nc1sc2c(c1C(=O)O)CCN(C(=O)c1ccc(F)cc1F)C2)c1ccc2ccccc2c1 | 66.41%
Cc1ccsc1C(=O)N1CCc2c(sc(NC(=O)c3ccc(Cl)cc3)c2C(=O)O)C1 | 62.02%
CCc1ccc(C(=O)Nc2sc3c(c2C(=O)O)CCN(C(=O)c2ccc(C(F)(F)F)cc2)C3)cc1 | 63.17%
O=C(Nc1sc2c(c1C(=O)O)CCN(C(=O)c1ccc(C(F)(F)F)cc1)C2)c1ccccc1 | 72.63%
Cc1ccc(C)c(CC(=O)N2CCc3c(sc(NC(=O)c4ccc5ccccc5c4)c3C(=O)O)C2)c1 | 67.34%
CC(C)C(=O)N1CCc2c(sc(NC(=O)c3ccccc3)c2C(=O)O)C1 | 90.8%
CCc1ccc(C(=O)Nc2sc3c(c2C(=O)O)CCN(C(=O)c2cc(OC)ccc2OC)C3)cc1 | 80.21%
CC(C)CC(=O)N1CCc2c(sc(NC(=O)c3ccccc3)c2C(=O)O)C1 | 98.72%
Cc1ccccc1C(=O)N1CCc2c(sc(NC(=O)CCC3CCCC3)c2C(=O)O)C1 | 76.07%
CCCc1ccc(C(=O)Nc2sc3c(c2C(=O)O)CCN(C(=O)c2ccc(C)cc2C)C3)cc1 | 61.2%
CCCSc1ncccc1C(=O)N1CCc2c(sc(NC(=O)c3ccc(CCC)cc3)c2C(=O)O)C1 | 79.09%
COc1ccc(OC)c(C(=O)N2CCc3c(sc(NC(=O)c4ccc(Cl)cc4)c3C(=O)O)C2)c1 | 70.67%
O=C(Nc1sc2c(c1C(=O)O)CCN(C(=O)CC1CCCC1)C2)c1ccc(Cl)cc1 | 82.59%
COc1cccc(C(=O)Nc2sc3c(c2C(=O)O)CCN(C(=O)c2cccc(F)c2C)C3)c1 | 73.59%
CCCc1ccc(C(=O)Nc2sc3c(c2C(=O)O)CCN(C(=O)CCc2ccc(F)c(F)c2)C3)cc1 | 89.36%
Cc1ccc(C(=O)N2CCc3c(sc(NC(=O)c4ccc(Cl)cc4)c3C(=O)O)C2)c(C)c1 | 63.51%
CCc1ccc(C(=O)Nc2sc3c(c2C(=O)O)CCN(C(=O)c2ccccc2SC)C3)cc1 | 86.44%
CC(C)(C)c1ccc(C(=O)Nc2sc3c(c2C(=O)O)CCN(C(=O)c2ccccc2Cl)C3)cc1 | 89.72%
CC(=O)Nc1cccc(C(=O)N2CCc3c(sc(NC(=O)c4ccccc4Cl)c3C(=O)O)C2)c1 | 72.75%
COc1ccccc1C(=O)Nc1sc2c(c1C(=O)O)CCN(C(=O)CCc1ccc(F)c(F)c1)C2 | 60.86%
COc1ccc(OC)c(C(=O)N2CCc3c(sc(NC(=O)CCC4CCCC4)c3C(=O)O)C2)c1 | 86.05%
CCCSc1ncccc1C(=O)N1CCc2c(sc(NC(=O)c3ccc(C(C)(C)C)cc3)c2C(=O)O)C1 | 83.49%

SMILES | % Inhibition
CCCc1ccc(C(=O)Nc2sc3c(c2C(=O)O)CCN(C(=O)c2cccc(OC)c2OC)C3)cc1 | 76.44%
CCc1ccc(C(=O)Nc2sc3c(c2C(=O)O)CCN(C(=O)c2cccnc2SC)C3)cc1 | 63.83%
Cc1ccc(C)c(CC(=O)N2CCc3c(sc(NC(=O)c4ccccc4)c3C(=O)O)C2)c1 | 86.14%
O=C(Nc1sc2c(c1C(=O)O)CCN(C(=O)/C=C/c1ccc(Cl)cc1)C2)c1ccccc1Cl | 68.58%
CCCSc1ncccc1C(=O)N1CCc2c(sc(NC(=O)c3cccc(OC)c3)c2C(=O)O)C1 | 88.5%
O=C(Nc1sc2c(c1C(=O)O)CCN(C(=O)C1CCC1)C2)c1ccc(Cl)cc1 | 67.98%
COc1ccc(OC)c(C(=O)N2CCc3c(sc(NC(=O)c4ccc(C(C)(C)C)cc4)c3C(=O)O)C2)c1 | 77.92%
CSc1ccccc1C(=O)N1CCc2c(sc(NC(=O)CC(C)CC(C)(C)C)c2C(=O)O)C1 (centres unmarked) | 95.62%
CSc1ncccc1C(=O)N1CCc2c(sc(NC(=O)c3ccccc3Cl)c2C(=O)O)C1 | 60.53%
Cc1c(F)cccc1C(=O)N1CCc2c(sc(NC(=O)CC(C)CC(C)(C)C)c2C(=O)O)C1 (centres unmarked) | 77.56%
CCOc1ncccc1C(=O)N1CCc2c(sc(NC(=O)c3ccc(CC)cc3)c2C(=O)O)C1 | 67.76%
COc1ccccc1C(=O)Nc1sc2c(c1C(=O)O)CCN(C(=O)c1cccc(F)c1C)C2 | 63.41%
COc1cc(Cl)ccc1C(=O)N1CCc2c(sc(NC(=O)c3c(F)cccc3F)c2C(=O)O)C1 | 59.98%
CCCc1ccc(C(=O)Nc2sc3c(c2C(=O)O)CCN(C(=O)C2CCC2)C3)cc1 | 95.65%
CCCSc1ncccc1C(=O)N1CCc2c(sc(NC(=O)c3ccc(Cl)cc3)c2C(=O)O)C1 | 66.79%
O=C(Nc1sc2c(c1C(=O)O)CCN(C(=O)C1CCC1)C2)c1ccccc1 | 89.4%
CC(=O)Nc1ccc(C(=O)N2CCc3c(sc(NC(=O)c4ccccc4)c3C(=O)O)C2)cc1 | 90.8%
Cc1ccc(C(=O)N2CCc3c(sc(NC(=O)CC(C)CC(C)(C)C)c3C(=O)O)C2)c(C)c1 (centres unmarked) | 81.9%
CCCc1ccc(C(=O)Nc2sc3c(c2C(=O)O)CCN(C(=O)C2CCCCC2)C3)cc1 | 66.83%
Cc1ccccc1C(=O)N1CCc2c(sc(NC(=O)c3ccco3)c2C(=O)O)C1 | 90.41%
O=C(CCC1CCCC1)Nc1sc2c(c1C(=O)O)CCN(C(=O)c1cccc3ccccc13)C2 | 82.49%
Cc1c(F)cccc1C(=O)N1CCc2c(sc(NC(=O)c3ccc(Cl)cc3)c2C(=O)O)C1 | 78.42%
